One test has as its system M6/6 cells. Nature of the test: SRB antiproliferative assay, M6/6 (SK-OV-3 expressing Pgp). The test is classed as cell-based. To be noted: for Rr value: relative resistance, M6/6 (Pgp) vs parental SKOV3; for IC50: Homo sapiens, SK-OV-3, SRB assay, 48 h, Pgp expressing, read-out: IC50 ± SD in M6/6 cells. On the technique in general: Sulforhodamine B stains cellular protein and so reports cell mass.

Another test deals with WTβ3 cells. The test can be described thus: SRB antiproliferative assay, WTβ3 (HeLa overexpressing βIII tubulin). The test is classed as cell-based. To be noted: relative resistance, WTβ3 vs parental HeLa.
The subject of another test is tubulin. Nature of the test: Inhibition of tubulin assembly (purified tubulin). To be noted: read-out: Inhibition tubulin assembly IC50(μM) ± SD. The test is classed as biochemical.
Test [1] has as its system cellular microtubules in A-10 cells. Nature of the test: Cellular microtubule depolymerization, indirect immunofluorescence. The test is classed as cell-based. To be noted: for effect on cellular microtubules: result in words.
Description: Evaluation of microtubule inhibition was performed using previously described methods.^22 Indirect immunofluorescence was used to evaluate the effects of the compounds on cellular microtubules as described previously.^38 Briefly, A-10 cells were treated for 18 h with vehicle (DMSO) or a compound, and microtubule effects were evaluated microscopically using β-tubulin antibody. The EC50 was calculated from 3 independent experiments and expressed as the mean±SD.
Another test deals with T1, EGFR (Homo sapiens, UniProt P00533).
T1 construct: tumor cell lines naturally expressing high levels of EGFR (A431); endogenous in cells; host or cells: A431
The test can be described thus: Phosphotyrosine ELISA cytoblot, EGFR (A431 cells). Conditions: EGF stimulation, read-out: EGFR kinase inhibition. The test is classed as cell-based. A general note: An ELISA detects its analyte on a solid surface through an enzyme-linked reagent.

A further test concerns the target T2, VEGFR-2 (Homo sapiens, UniProt P35968).
T2 construct: tumor cell lines naturally expressing high levels of EGFR (A431), VEGFR-2 (U251); endogenous in cells; host or cells: U251
Nature of the test: Phosphotyrosine ELISA cytoblot, VEGFR-2 (U251 cells). The test is classed as cell-based. Conditions: for IC50: U251 cells, phosphotyrosine ELISA, VEGF stimulation, read-out: VEGFR-2 kinase inhibition; for fold better than sunitinib, VEGFR-2: VEGFR-2 expressing cells.

A further test has as its target T3, PDGFR-β (Homo sapiens, UniProt P09619).
T3 construct: naturally expressing high levels of EGFR (A431), VEGFR-2 (U251), and PDGFR-β (SH-SY5Y); endogenous in cells; host or cells: SH-SY5Y
Nature of the test: Phosphotyrosine ELISA cytoblot, PDGFR-β (SH-SY5Y cells). The test is classed as cell-based. To be noted: for fold better than sunitinib, PDGFR-β: PDGFR-β expressing cells; for IC50: SH-SY5Y cells, phosphotyrosine ELISA, PDGF-BB stimulation, read-out: PDGFR-β kinase inhibition.

Another test deals with A431 cancer cells. The test can be described thus: A431 cytotoxicity (cell proliferation). The test is classed as cell-based. To be noted: Homo sapiens, A-431; A431 cancer cells overexpressing EGFR.

This is an account of results in US9777012B2, “Substituted furo[2,3-d]pyrimidines as multi-targeted receptor tyrosine kinase inhibitors and microtubule targeting antitumor agents” (Duquesne University of the Holy Spirit, priority 2014, dated 2017).

Several values for one entry are separate records, joined by “and”; a condition that tells them apart may be missing. Equal entries are not always repeated. Where only a bound is given, the exact number is not on record here.

T3 sequence (P09619 33-1106): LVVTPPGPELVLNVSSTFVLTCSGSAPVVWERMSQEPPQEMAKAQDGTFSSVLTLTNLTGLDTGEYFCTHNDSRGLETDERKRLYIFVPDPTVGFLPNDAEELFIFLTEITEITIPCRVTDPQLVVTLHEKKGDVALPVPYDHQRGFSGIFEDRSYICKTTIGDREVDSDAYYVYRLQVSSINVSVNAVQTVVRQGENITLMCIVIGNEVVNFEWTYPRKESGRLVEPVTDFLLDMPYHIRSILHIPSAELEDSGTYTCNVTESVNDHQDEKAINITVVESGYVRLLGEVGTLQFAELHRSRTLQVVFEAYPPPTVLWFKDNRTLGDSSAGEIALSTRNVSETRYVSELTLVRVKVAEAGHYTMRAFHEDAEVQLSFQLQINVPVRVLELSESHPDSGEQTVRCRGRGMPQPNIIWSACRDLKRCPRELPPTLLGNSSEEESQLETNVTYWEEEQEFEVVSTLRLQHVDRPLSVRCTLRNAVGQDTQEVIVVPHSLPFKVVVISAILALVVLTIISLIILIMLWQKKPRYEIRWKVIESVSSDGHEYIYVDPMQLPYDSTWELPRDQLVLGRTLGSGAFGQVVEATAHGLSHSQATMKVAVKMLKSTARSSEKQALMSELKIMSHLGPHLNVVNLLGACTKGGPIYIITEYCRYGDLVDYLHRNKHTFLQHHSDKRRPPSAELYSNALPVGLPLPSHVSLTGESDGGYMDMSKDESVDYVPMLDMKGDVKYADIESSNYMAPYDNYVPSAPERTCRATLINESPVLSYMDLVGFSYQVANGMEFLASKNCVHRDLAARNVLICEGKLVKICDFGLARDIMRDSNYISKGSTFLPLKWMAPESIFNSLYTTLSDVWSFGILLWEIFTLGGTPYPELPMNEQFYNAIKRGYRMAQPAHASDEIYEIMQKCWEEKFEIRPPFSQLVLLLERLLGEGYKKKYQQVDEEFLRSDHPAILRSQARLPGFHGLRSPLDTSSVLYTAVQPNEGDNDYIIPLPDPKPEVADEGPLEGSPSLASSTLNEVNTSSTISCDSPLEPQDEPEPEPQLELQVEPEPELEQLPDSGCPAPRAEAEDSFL
T1 sequence (P00533 25-1210): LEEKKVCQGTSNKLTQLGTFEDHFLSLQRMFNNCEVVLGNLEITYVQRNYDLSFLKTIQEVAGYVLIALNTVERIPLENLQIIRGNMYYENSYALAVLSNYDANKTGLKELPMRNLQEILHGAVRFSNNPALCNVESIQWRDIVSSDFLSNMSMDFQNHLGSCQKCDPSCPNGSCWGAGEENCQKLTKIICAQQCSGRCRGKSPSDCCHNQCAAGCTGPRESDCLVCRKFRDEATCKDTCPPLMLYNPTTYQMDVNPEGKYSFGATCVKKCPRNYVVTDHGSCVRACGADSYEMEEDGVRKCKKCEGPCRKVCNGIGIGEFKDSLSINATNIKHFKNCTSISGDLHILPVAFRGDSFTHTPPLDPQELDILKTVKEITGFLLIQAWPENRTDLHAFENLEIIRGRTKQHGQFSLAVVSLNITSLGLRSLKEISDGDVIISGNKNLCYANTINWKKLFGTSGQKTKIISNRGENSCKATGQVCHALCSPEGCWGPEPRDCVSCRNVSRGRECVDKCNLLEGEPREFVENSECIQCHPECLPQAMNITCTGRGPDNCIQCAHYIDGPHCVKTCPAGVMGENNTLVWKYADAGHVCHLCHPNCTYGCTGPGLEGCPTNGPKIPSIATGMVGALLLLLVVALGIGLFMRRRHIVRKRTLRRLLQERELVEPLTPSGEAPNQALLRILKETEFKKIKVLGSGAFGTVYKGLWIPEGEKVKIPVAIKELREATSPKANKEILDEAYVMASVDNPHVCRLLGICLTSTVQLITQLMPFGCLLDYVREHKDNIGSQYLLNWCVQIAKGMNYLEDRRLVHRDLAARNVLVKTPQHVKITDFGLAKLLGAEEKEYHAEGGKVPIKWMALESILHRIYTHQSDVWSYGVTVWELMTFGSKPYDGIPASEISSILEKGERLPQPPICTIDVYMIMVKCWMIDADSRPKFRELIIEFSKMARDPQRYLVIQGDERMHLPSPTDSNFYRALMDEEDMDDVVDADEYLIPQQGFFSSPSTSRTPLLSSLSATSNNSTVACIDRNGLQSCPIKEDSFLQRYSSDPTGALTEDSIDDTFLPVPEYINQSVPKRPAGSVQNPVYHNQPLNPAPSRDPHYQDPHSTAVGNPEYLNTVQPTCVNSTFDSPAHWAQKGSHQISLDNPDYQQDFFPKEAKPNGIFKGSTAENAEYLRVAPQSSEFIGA
T2 sequence (P35968 20-1356): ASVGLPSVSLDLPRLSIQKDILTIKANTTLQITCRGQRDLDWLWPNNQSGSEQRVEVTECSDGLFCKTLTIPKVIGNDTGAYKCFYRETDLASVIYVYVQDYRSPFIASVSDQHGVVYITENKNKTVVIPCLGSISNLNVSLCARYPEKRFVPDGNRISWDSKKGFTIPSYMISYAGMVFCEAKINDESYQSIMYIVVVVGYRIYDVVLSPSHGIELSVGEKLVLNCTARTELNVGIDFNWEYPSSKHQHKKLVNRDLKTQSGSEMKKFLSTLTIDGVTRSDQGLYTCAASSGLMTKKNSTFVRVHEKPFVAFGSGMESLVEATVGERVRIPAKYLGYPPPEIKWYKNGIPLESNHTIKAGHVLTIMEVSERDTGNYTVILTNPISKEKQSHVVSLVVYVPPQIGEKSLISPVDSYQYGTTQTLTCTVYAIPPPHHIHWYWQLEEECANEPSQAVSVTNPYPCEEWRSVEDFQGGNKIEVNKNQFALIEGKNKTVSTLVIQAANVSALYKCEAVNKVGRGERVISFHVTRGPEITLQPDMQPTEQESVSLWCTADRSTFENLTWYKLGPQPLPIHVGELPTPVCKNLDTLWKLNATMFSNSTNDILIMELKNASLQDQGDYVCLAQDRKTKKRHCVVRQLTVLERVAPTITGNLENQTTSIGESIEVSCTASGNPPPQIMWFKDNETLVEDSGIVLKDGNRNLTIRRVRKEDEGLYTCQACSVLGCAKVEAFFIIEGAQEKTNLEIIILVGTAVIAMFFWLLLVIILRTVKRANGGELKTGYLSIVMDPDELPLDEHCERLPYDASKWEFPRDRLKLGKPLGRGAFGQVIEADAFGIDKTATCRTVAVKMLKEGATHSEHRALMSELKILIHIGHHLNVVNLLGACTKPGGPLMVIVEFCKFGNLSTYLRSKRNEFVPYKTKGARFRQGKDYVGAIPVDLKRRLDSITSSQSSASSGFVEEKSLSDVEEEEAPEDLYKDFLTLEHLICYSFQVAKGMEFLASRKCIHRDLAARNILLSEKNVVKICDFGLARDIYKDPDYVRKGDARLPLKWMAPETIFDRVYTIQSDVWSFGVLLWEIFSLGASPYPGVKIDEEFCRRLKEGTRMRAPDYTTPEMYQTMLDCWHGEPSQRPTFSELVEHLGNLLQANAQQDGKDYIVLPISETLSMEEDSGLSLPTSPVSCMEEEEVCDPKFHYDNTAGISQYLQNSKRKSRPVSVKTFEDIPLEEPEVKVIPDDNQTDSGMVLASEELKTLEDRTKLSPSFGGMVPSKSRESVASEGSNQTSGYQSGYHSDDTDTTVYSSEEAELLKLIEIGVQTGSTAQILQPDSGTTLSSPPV
Description for PDGFR-β: (§1) Phosphotyrosine ELISA. Cells used were tumor cell lines naturally expressing high levels of EGFR (A431), VEGFR-2 (U251), and PDGFR-β (SH-SY5Y). […] The reaction was stopped and cells were permeabilized by quickly removing the media from the cells and adding ice-cold Tris-buffered saline (TBS) containing 0.05% Triton X-100, protease inhibitor cocktail and tyrosine phosphatase inhibitor cocktail. The TBS solution was then removed and cells fixed to the plate for 30 min at 60° C. and further incubation in 70% ethanol for an additional 30 min. Cells were further exposed to block (TBS with 1% BSA) for 1 h, washed, and then a horseradish peroxidase (HRP)-conjugated phosphotyrosine (PY) antibody was added overnight.
Description for VEGFR-2: as §1

For the compound `COc1ccc(/C=C\c2cc(OC)c(OC)c(OC)c2)cc1O` [CA-4, combretastatin A-4, reference compound], the Rr value in the test with M6/6 cells worked out at 0.4; in the test with WTβ3 cells, 1.0.
In general, EC50 refers to the concentration needed to bring the measured effect to its halfway point. As to `COc1ccc(N(C)c2nc(C)nc3oc(C)cc23)cc1` [Compound 1], the Rr value is 1.7 in the test on M6/6 cells and 0.8 in the test with WTβ3 cells. The IC50 in the test with tubulin worked out at 2.4 ± 0.01 µM. Also, the EC50 in test [1] (Rattus norvegicus, A10, 18 h, read-out: EC50 for MT depolymerization in A · 10 cells) turned out to be 0.103 µM.
Turning to `COc1ccc(N(C)c2nc(C)nc3oc(C)cc23)cc1OC` [Compound 3, N-(3,4-dimethoxyphenyl)-N,2,6-trimethylfuro[2,3-d]pyrimidin-4-amine], the “effect on cellular microtubules” value in test [1] is listed as “dose-dependent loss of cellular microtubules”.
For the compound `COc1cc(N(C)c2nc(C)nc3oc(C)cc23)cc(OC)c1OC` [Compound 4, N,2,6-trimethyl-N-(3,4,5-trimethoxyphenyl)furo[2,3-d]pyrimidin-4-amine], the values for the IC50 at EGFR and at VEGFR-2 were over 0.5 µM and over 0.3 µM, respectively.
Consider `Cc1nc(N(C)c2ccc3c(c2)CCO3)c2cc(C)oc2n1` [Compound 6, N-(2,3-dihydro-1-benzofuran-5-yl)-N,2,6-trimethylfuro[2,3-d]pyrimidin-4-amine], for which, in the test on M6/6 cells, the IC50 came out at 0.155 ± 0.0172 µM and the Rr value is 1.3. For the same compound, the “fold better than sunitinib, VEGFR-2” value on VEGFR-2 is 3 fold. Besides, the “fold better than sunitinib, PDGFR-β” value on PDGFR-β is listed as “about 4 fold”. Also, the “effect on cellular microtubules” value in test [1] is reported as “dose-dependent loss of cellular microtubules”.
On to `Cc1nc(N(C)c2ccc3occc3c2)c2cc(C)oc2n1` [Compound 7, N-1-benzofuran-5-yl-N,2,6-trimethylfuro[2,3-d]pyrimidin-4-amine], for which, in the test on M6/6 cells, the IC50 was 0.509 ± 0.0048 µM and the Rr value was determined as 1.2. Also, on VEGFR-2, the “fold better than sunitinib, VEGFR-2” value worked out at 3 fold. Also, the “fold better than sunitinib, PDGFR-β” value at PDGFR-β is “about 4 fold”. Moreover, the “effect on cellular microtubules” value in test [1] is reported as “dose-dependent loss of cellular microtubules”.
With `COc1ccc2c(c1)CCN2c1nc(C)nc2oc(C)cc12` [Compound 8, 4-(5-methoxyindolin-1-yl)-2,6-dimethylfuro[2,3-d]pyrimidine], the “effect on cellular microtubules” value in test [1] is “no effect on cellular microtubules”.
Consider `COc1ccc2c(ccn2-c2nc(C)nc3oc(C)cc23)c1` [Compound 9, 4-(5-methoxy-1H-indol-1-yl)-2,6-dimethylfuro[2,3-d]pyrimidine], for which, on EGFR, the IC50 is over 0.5 µM.
Take `COc1ccc2c(c1)CCCN2c1nc(C)nc2oc(C)cc12` [Compound 10, 4-(6-methoxy-3,4-dihydroquinolin-1(2H)-yl)-2,6-dimethylfuro[2,3-d]pyrimidine]: in test [1], the “effect on cellular microtubules” value is recorded as “dose-dependent loss of cellular microtubules”.
With `CCOc1ccc(N(C)c2nc(C)nc3oc(C)cc23)cc1` [Compound 11, N-(4-ethoxyphenyl)-N,2,6-trimethylfuro[2,3-d]pyrimidin-4-amine], the IC50 on EGFR worked out at 0.102 ± 0.0201 µM; at VEGFR-2, 0.0385 ± 0.0047 µM; at PDGFR-β it was 0.084 ± 0.01 µM.
As to `CCCOc1ccc(N(C)c2nc(C)nc3oc(C)cc23)cc1` [Compound 12, N-2,6-trimethyl-N-(4-propoxyphenyl)furo[2,3-d]pyrimidin-4-amine], the IC50 in the test with M6/6 cells is 0.0308 ± 0.0017 µM; at EGFR, over 0.5 µM; in the test on A431 cancer cells, 0.0929 ± 0.0101 µM; on VEGFR-2 it was 0.121 ± 0.0186 µM; on PDGFR-β, 0.132 ± 0.0144 µM. In the test with M6/6 cells, the Rr value was 1.3.
For the compound `CC(=O)O[C@H]1C(=O)[C@@]2(C)[C@H]([C@H](OC(=O)c3ccccc3)[C@]3(O)C[C@H](OC(=O)[C@H](O)[C@@H](NC(=O)c4ccccc4)c4ccccc4)C(C)=C1C3(C)C)[C@]1(OC(C)=O)CO[C@@H]1C[C@@H]2O` [Paclitaxel, reference compound], the Rr value entry is “over 250 and 265.2” with M6/6 cells; 17.3 in the test on WTβ3 cells.
